Measurements from PMC7181660, “A novel specific PERK activator reduces toxicity and extends survival in Huntington's disease models” (Scientific Reports, 2020).

Experiments:
Assay in all cases: biochemical
Assay type in all cases: biochemical
panel of 391 kinases [1] = target: panel of 391 kinases (Homo sapiens, UniProt Q13188); details: MST2/STK3, MK-28 1 µM, ATP 1 µM
panel of 391 kinases [2] = target: panel of 391 kinases (Homo sapiens, UniProt P27361); details: ERK1, MK-28 1 µM, ATP 1 µM
panel of 391 kinases [3] = target: panel of 391 kinases (Homo sapiens, UniProt Q96RG2); details: PASK, MK-28 1 µM, ATP 1 µM
panel of 391 kinases [4] = target: panel of 391 kinases (Homo sapiens, UniProt O00141); details: SGK1, MK-28 1 µM, ATP 1 µM
panel of 391 kinases [5] = target: panel of 391 kinases (Homo sapiens, UniProt O75676); details: MSK2/RPS6KA4, MK-28 1 µM, ATP 1 µM
panel of 391 kinases [6] = target: panel of 391 kinases (Homo sapiens, UniProt P51957); details: NEK4, MK-28 1 µM, ATP 1 µM
panel of 391 kinases [7] = target: panel of 391 kinases (Homo sapiens, UniProt P78527); details: kinase DNA-PK, compound at 1 µM, single dose in duplicates, 1 µM ATP
panel of 391 kinases [8] = target: panel of 391 kinases (Homo sapiens, UniProt Q9UQM7); details: CAMK2a, MK-28 1 µM, ATP 1 µM
panel of 391 kinases [9] = target: panel of 391 kinases (Homo sapiens, UniProt Q8WTQ7); details: GRK7, MK-28 1 µM, ATP 1 µM
panel of 391 kinases [10] = target: panel of 391 kinases (Homo sapiens, UniProt Q9UQB9); details: Aurora C, MK-28 1 µM, ATP 1 µM
panel of 391 kinases [11] = target: panel of 391 kinases (Homo sapiens, UniProt Q9BQI3); details: kinase EIF2AK1, compound at 1 µM, single dose in duplicates, 1 µM ATP
panel of 391 kinases [12] = target: panel of 391 kinases (Homo sapiens, UniProt Q96RR4); details: CAMKK2, MK-28 1 µM, ATP 1 µM
panel of 391 kinases [13] = target: panel of 391 kinases (Homo sapiens, UniProt Q04771); details: ALK2/ACVR1, MK-28 1 µM, ATP 1 µM
panel of 391 kinases [14] = target: panel of 391 kinases (Homo sapiens, UniProt Q9Y6M4); details: CK1g3, MK-28 1 µM, ATP 1 µM
panel of 391 kinases [15] = target: panel of 391 kinases (Homo sapiens, UniProt P36507); details: MEK2, MK-28 1 µM, ATP 1 µM
panel of 391 kinases [16] = target: panel of 391 kinases (Homo sapiens, UniProt P57078); details: RIPK4, MK-28 1 µM, ATP 1 µM
panel of 391 kinases [17] = target: panel of 391 kinases (Homo sapiens, UniProt Q9P0L2); details: MARK1, MK-28 1 µM, ATP 1 µM
panel of 391 kinases [18] = target: panel of 391 kinases (Homo sapiens, UniProt P35968); details: KDR/VEGFR2, MK-28 1 µM, ATP 1 µM
panel of 391 kinases [19] = target: panel of 391 kinases (Homo sapiens, UniProt P51812); details: RSK2, MK-28 1 µM, ATP 1 µM
panel of 391 kinases [20] = target: panel of 391 kinases (Homo sapiens, UniProt O96013); details: PAK4, MK-28 1 µM, ATP 1 µM
panel of 391 kinases [21] = target: panel of 391 kinases (Homo sapiens, UniProt Q5VT25); details: MRCKa/CDC42BPA, MK-28 1 µM, ATP 1 µM
panel of 391 kinases [22] = target: panel of 391 kinases (Homo sapiens, UniProt Q8TD08); details: ERK7/MAPK15, MK-28 1 µM, ATP 1 µM
panel of 391 kinases [23] = target: panel of 391 kinases (Homo sapiens, UniProt Q15569); details: TESK1, MK-28 1 µM, ATP 1 µM
panel of 391 kinases [24] = target: panel of 391 kinases (Homo sapiens, UniProt P54753); details: EPHB3, MK-28 1 µM, ATP 1 µM
panel of 391 kinases [25] = target: panel of 391 kinases (Homo sapiens, UniProt Q8TDX7); details: NEK7, MK-28 1 µM, ATP 1 µM
panel of 391 kinases [26] = target: panel of 391 kinases (Homo sapiens, UniProt Q8TDC3); details: BRSK1, MK-28 1 µM, ATP 1 µM
[27] = read-out: % Enzyme Activity (relative to DMSO controls)

**Q.** `CN(/N=C\c1ccc(O)c(O)c1)c1nc(-c2ccccc2)cc(-c2ccccc2)n1` [MK-28] was tested. Which “% Enzyme Activity (relative to DMSO controls)” value (panel of 391 kinases [1]) did it give?
**A.** 100.15%

**Q.** What about the remaining activity at 1 µM (panel of 391 kinases [1]; [27]) of the same compound?
**A.** 101%

**Q.** And the “% Enzyme Activity (relative to DMSO controls)” value (panel of 391 kinases [2])?
**A.** 99.70%

**Q.** What about the remaining activity at 1 µM (panel of 391 kinases [2]; [27]) of the same compound?
**A.** 101%

**Q.** And the “% Enzyme Activity (relative to DMSO controls)” value (panel of 391 kinases [3])?
**A.** 91.44%

**Q.** What about the remaining activity at 1 µM (panel of 391 kinases [3]; [27]) of the same compound?
**A.** 95.4%

**Q.** And the “% Enzyme Activity (relative to DMSO controls)” value (panel of 391 kinases [4])?
**A.** 103.26%

**Q.** And the remaining activity at 1 µM (panel of 391 kinases [4]; [27])?
**A.** 108%

**Q.** What about the “% Enzyme Activity (relative to DMSO controls)” value (panel of 391 kinases [5]) of the same compound?
**A.** 94.82%

**Q.** And the remaining activity at 1 µM (panel of 391 kinases [5]; [27])?
**A.** 96.8%

**Q.** What about the “% Enzyme Activity (relative to DMSO controls)” value (panel of 391 kinases [6]) of the same compound?
**A.** 89.27%

**Q.** What about the remaining activity at 1 µM (panel of 391 kinases [6]; [27]) of the same compound?
**A.** 91.6%

**Q.** And the “% Enzyme Activity (relative to DMSO controls)” value (panel of 391 kinases [7])?
**A.** 102.10%

**Q.** What about the remaining activity at 1 µM (panel of 391 kinases [7]; [27]) of the same compound?
**A.** 103%

**Q.** What about the “% Enzyme Activity (relative to DMSO controls)” value (panel of 391 kinases [8]) of the same compound?
**A.** 100.97%

**Q.** What about the remaining activity at 1 µM (panel of 391 kinases [8]; [27]) of the same compound?
**A.** 103%

**Q.** What about the “% Enzyme Activity (relative to DMSO controls)” value (panel of 391 kinases [9]) of the same compound?
**A.** 97.74%

**Q.** What about the remaining activity at 1 µM (panel of 391 kinases [9]; [27]) of the same compound?
**A.** 98.5%

**Q.** And the “% Enzyme Activity (relative to DMSO controls)” value (panel of 391 kinases [10])?
**A.** 93.97%

**Q.** What about the remaining activity at 1 µM (panel of 391 kinases [10]; [27]) of the same compound?
**A.** 95.6%

**Q.** And the “% Enzyme Activity (relative to DMSO controls)” value (panel of 391 kinases [11])?
**A.** 96.86%

**Q.** And the remaining activity at 1 µM (panel of 391 kinases [11]; [27])?
**A.** 100%

**Q.** What about the “% Enzyme Activity (relative to DMSO controls)” value (panel of 391 kinases [12]) of the same compound?
**A.** 93.50%

**Q.** What about the remaining activity at 1 µM (panel of 391 kinases [12]; [27]) of the same compound?
**A.** 97.2%

**Q.** What about the “% Enzyme Activity (relative to DMSO controls)” value (panel of 391 kinases [13]) of the same compound?
**A.** 102.33%

**Q.** What about the remaining activity at 1 µM (panel of 391 kinases [13]; [27]) of the same compound?
**A.** 108%

**Q.** And the “% Enzyme Activity (relative to DMSO controls)” value (panel of 391 kinases [14])?
**A.** 76.84%

**Q.** And the remaining activity at 1 µM (panel of 391 kinases [14]; [27])?
**A.** 80.6%

**Q.** What about the “% Enzyme Activity (relative to DMSO controls)” value (panel of 391 kinases [15]) of the same compound?
**A.** 98.80%

**Q.** What about the remaining activity at 1 µM (panel of 391 kinases [15]; [27]) of the same compound?
**A.** 99.9%

**Q.** And the “% Enzyme Activity (relative to DMSO controls)” value (panel of 391 kinases [16])?
**A.** 89.94%

**Q.** And the remaining activity at 1 µM (panel of 391 kinases [16]; [27])?
**A.** 95.1%

**Q.** And the “% Enzyme Activity (relative to DMSO controls)” value (panel of 391 kinases [17])?
**A.** 94.22%

**Q.** And the remaining activity at 1 µM (panel of 391 kinases [17]; [27])?
**A.** 94.5%

**Q.** What about the “% Enzyme Activity (relative to DMSO controls)” value (panel of 391 kinases [18]) of the same compound?
**A.** 98.38%

**Q.** What about the remaining activity at 1 µM (panel of 391 kinases [18]; [27]) of the same compound?
**A.** 99.8%

**Q.** What about the “% Enzyme Activity (relative to DMSO controls)” value (panel of 391 kinases [19]) of the same compound?
**A.** 95.23%

**Q.** What about the remaining activity at 1 µM (panel of 391 kinases [19]; [27]) of the same compound?
**A.** 99.7%

**Q.** And the “% Enzyme Activity (relative to DMSO controls)” value (panel of 391 kinases [20])?
**A.** 97.48%

**Q.** What about the remaining activity at 1 µM (panel of 391 kinases [20]; [27]) of the same compound?
**A.** 97.6%

**Q.** What about the “% Enzyme Activity (relative to DMSO controls)” value (panel of 391 kinases [21]) of the same compound?
**A.** 93.74%

**Q.** And the remaining activity at 1 µM (panel of 391 kinases [21]; [27])?
**A.** 95.3%

**Q.** What about the “% Enzyme Activity (relative to DMSO controls)” value (panel of 391 kinases [22]) of the same compound?
**A.** 103.38%

**Q.** And the remaining activity at 1 µM (panel of 391 kinases [22]; [27])?
**A.** 105%

**Q.** What about the “% Enzyme Activity (relative to DMSO controls)” value (panel of 391 kinases [23]) of the same compound?
**A.** 66.57%

**Q.** What about the remaining activity at 1 µM (panel of 391 kinases [23]; [27]) of the same compound?
**A.** 66.7%

**Q.** And the “% Enzyme Activity (relative to DMSO controls)” value (panel of 391 kinases [24])?
**A.** 97.56%

**Q.** And the remaining activity at 1 µM (panel of 391 kinases [24]; [27])?
**A.** 99.2%

**Q.** What about the “% Enzyme Activity (relative to DMSO controls)” value (panel of 391 kinases [25]) of the same compound?
**A.** 97.32%

**Q.** What about the remaining activity at 1 µM (panel of 391 kinases [25]; [27]) of the same compound?
**A.** 98.3%

**Q.** What about the “% Enzyme Activity (relative to DMSO controls)” value (panel of 391 kinases [26]) of the same compound?
**A.** 90.51%

**Q.** And the remaining activity at 1 µM (panel of 391 kinases [26]; [27])?
**A.** 92.8%
